Holding throughout (assay type): biochemical
One test concerns the target F338A HuAChE (Homo sapiens, UniProt P22303, F369A). Put plainly: HuAChE inhibition kinetics.
For another test, the target named is Y337A HuAChE (Homo sapiens, UniProt P22303, Y368A). Nature of the test: HuAChE inhibition kinetics.
The next test has as its target Wild Type HuAChE (Homo sapiens, UniProt P22303). Put plainly: HuAChE inhibition kinetics.
The target of another test is W86A HuAChE (Homo sapiens, UniProt P22303, W117A). Nature of the test: HuAChE inhibition kinetics.
Chain of W86A HuAChE (P22303 32-614 W117A): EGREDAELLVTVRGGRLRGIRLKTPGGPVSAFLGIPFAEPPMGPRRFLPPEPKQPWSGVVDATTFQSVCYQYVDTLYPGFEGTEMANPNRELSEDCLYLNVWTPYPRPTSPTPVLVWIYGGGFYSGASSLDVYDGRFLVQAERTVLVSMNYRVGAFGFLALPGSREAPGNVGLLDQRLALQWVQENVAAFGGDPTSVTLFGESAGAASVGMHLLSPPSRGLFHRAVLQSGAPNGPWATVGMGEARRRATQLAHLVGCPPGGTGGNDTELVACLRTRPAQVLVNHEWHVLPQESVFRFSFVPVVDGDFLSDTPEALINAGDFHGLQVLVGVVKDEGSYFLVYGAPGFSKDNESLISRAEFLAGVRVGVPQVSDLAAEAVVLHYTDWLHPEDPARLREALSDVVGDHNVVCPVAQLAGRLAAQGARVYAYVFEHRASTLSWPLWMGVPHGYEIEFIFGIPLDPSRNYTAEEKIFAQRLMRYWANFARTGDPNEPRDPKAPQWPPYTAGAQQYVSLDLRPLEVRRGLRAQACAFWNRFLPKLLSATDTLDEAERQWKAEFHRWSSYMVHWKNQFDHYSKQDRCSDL
Test [1] addresses Y72N/Y124Q/W286A/ F295L/F297V/Y337A/ V407F HuAChE (Homo sapiens, UniProt P22303, F326L/F328V/V438F/W317A/Y103N/Y155Q/Y368A). Nature of the test: HuAChE inhibition kinetics.
In test [2] the target is Y72N/Y124Q/W286A/ F295L/F297V/Y337A HuAChE (Homo sapiens, UniProt P22303, F326L/F328V/W317A/Y103N/Y155Q/Y368A). Nature of the test: HuAChE inhibition kinetics.
Chain of Y72N/Y124Q/W286A/ F295L/F297V/Y337A HuAChE (P22303 32-614 Y103N/Y155Q/W317A/F326L/F328V/Y368A): as the sequence (P22303 32-614 W117A) above, with Y72N, A86W, Y124Q, W286A, F295L, F297V, Y337A counted along it
The target in a further test is F295L/F297V HuAChE (Homo sapiens, UniProt P22303, F326L/F328V). Put plainly: HuAChE inhibition kinetics.
Chain of F295L/F297V HuAChE (P22303 32-614 F326L/F328V): as the sequence (P22303 32-614 W117A) above, with A86W, F295L, F297V counted along it
A further test deals with F295L/F297V/Y337A HuAChE (Homo sapiens, UniProt P22303, F326L/F328V/Y368A). Nature of the test: HuAChE inhibition kinetics.
Chain of F295L/F297V/Y337A HuAChE (P22303 32-614 F326L/F328V/Y368A): as the sequence (P22303 32-614 W117A) above, with A86W, F295L, F297V, Y337A counted along it
The target of a further test is W86F HuAChE (Homo sapiens, UniProt P22303, W117F). Nature of the test: HuAChE inhibition kinetics.
Chain of W86F HuAChE (P22303 32-614 W117F): as the sequence (P22303 32-614 W117A) above, with A86F counted along it
For the next test, the target named is Y133F HuAChE (Homo sapiens, UniProt P22303, Y164F). Nature of the test: HuAChE inhibition kinetics.
Chain of Y133F HuAChE (P22303 32-614 Y164F): as the sequence (P22303 32-614 W117A) above, with A86W, Y133F counted along it
The next test has as its target Y341A HuAChE (Homo sapiens, UniProt P22303, Y372A). Put plainly: HuAChE inhibition kinetics.
Another test concerns the target Y72N HuAChE (Homo sapiens, UniProt P22303, Y103N). Put plainly: HuAChE inhibition kinetics.
The target of another test is E202A HuAChE (Homo sapiens, UniProt P22303, E233A). Put plainly: HuAChE inhibition kinetics.
Chain of E202A HuAChE (P22303 32-614 E233A): as the sequence (P22303 32-614 W117A) above, with A86W, E202A counted along it
The target of the next test is F295A HuAChE (Homo sapiens, UniProt P22303, F326A). Nature of the test: HuAChE inhibition kinetics.
Chain of F295A HuAChE (P22303 32-614 F326A): as the sequence (P22303 32-614 W117A) above, with A86W, F295A counted along it
A further test deals with Y337F HuAChE (Homo sapiens, UniProt P22303, Y368F). Nature of the test: HuAChE inhibition kinetics.
Chain of Y337F HuAChE (P22303 32-614 Y368F): as the sequence (P22303 32-614 W117A) above, with A86W, Y337F counted along it
A further test concerns the target F295A/F338A/V407F HuAChE (Homo sapiens, UniProt P22303, F326A/F369A/V438F). Nature of the test: HuAChE inhibition kinetics.
The next test has as its target E202Q HuAChE (Homo sapiens, UniProt P22303, E233Q). Nature of the test: HuAChE inhibition kinetics.
The target in another test is F295A/F297A HuAChE (Homo sapiens, UniProt P22303, F326A/F328A). Nature of the test: HuAChE inhibition kinetics.
Chain of F295A/F297A HuAChE (P22303 32-614 F326A/F328A): as the sequence (P22303 32-614 W117A) above, with A86W, F295A, F297A counted along it
In another test the target is HuBChE-Wild Type (Homo sapiens, UniProt P06276). Put plainly: HuBChE inhibition kinetics. The settings on record: for k2, carbamylation rate constant: HuBChE-Wild Type.
Chain of HuBChE-Wild Type (P06276 29-602): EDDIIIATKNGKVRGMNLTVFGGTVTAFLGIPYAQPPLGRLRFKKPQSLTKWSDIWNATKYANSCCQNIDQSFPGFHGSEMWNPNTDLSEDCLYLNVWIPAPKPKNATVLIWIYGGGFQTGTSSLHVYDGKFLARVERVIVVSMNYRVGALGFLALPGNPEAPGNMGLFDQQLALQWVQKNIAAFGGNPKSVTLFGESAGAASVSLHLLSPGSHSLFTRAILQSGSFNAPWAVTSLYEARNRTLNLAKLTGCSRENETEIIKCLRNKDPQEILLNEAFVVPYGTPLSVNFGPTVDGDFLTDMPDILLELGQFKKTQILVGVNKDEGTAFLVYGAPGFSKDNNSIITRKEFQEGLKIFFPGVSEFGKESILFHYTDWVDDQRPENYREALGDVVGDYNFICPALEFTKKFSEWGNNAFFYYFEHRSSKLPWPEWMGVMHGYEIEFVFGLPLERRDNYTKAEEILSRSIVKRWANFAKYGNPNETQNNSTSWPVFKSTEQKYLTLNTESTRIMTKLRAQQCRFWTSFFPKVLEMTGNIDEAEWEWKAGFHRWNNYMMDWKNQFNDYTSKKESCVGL
The next test has as its target F297A HuAChE (Homo sapiens, UniProt P22303, F328A). Nature of the test: HuAChE inhibition kinetics.
The target of a further test is W286A HuAChE (Homo sapiens, UniProt P22303, W317A). Put plainly: HuAChE inhibition kinetics.
Chain of W286A HuAChE (P22303 32-614 W317A): as the sequence (P22303 32-614 W117A) above, with A86W, W286A counted along it
For a further test, the target named is E450A HuAChE (Homo sapiens, UniProt P22303, E481A). Nature of the test: HuAChE inhibition kinetics.
Chain of E450A HuAChE (P22303 32-614 E481A): as the sequence (P22303 32-614 W117A) above, with A86W, E450A counted along it
A further test deals with F295A/F338A HuAChE (Homo sapiens, UniProt P22303, F326A/F369A). Put plainly: HuAChE inhibition kinetics.
Chain of F295A/F338A HuAChE (P22303 32-614 F326A/F369A): as the sequence (P22303 32-614 W117A) above, with A86W, F295A, F338A counted along it
In the next test the target is D74N HuAChE (Homo sapiens, UniProt P22303, D105N). Put plainly: HuAChE inhibition kinetics.
Chain of D74N HuAChE (P22303 32-614 D105N): as the sequence (P22303 32-614 W117A) above, with D74N, A86W counted along it
Another test addresses Y133A HuAChE (Homo sapiens, UniProt P22303, Y164A). Put plainly: HuAChE inhibition kinetics.
The next test has as its target W86A/Y337A HuAChE (Homo sapiens, UniProt P22303, W117A/Y368A). Put plainly: biochemical.
Where [3] appears, read: read-out: Kd, noncovalent inhibition (competition with ATC), F338A HuAChE.
The mark [4] stands for this setting: read-out: Kd, noncovalent inhibition (competition with ATC), Y337A HuAChE.
[5] abbreviates: read-out: Kd, noncovalent inhibition (competition with ATC), Wild Type HuAChE.
Where [6] appears, read: read-out: Kd, noncovalent inhibition (competition with ATC), W86A HuAChE.
[7] abbreviates: read-out: Kd, Michaelis complex (Eq. 1), Y133A HuAChE, NI = No inhibition between […]10^−6- […]10^−4M.

Read-outs that look alike come from different tables or passages of the source. Bounds are passed on as bounds.

Broadly, the Kd is a measure of binding affinity in units of concentration.

Chain of Y337A HuAChE (P22303 32-614 Y368A): as the sequence (P22303 32-614 W117A) above, with A86W, Y337A counted along it
Chain of F297A HuAChE (P22303 32-614 F328A): as the sequence (P22303 32-614 W117A) above, with A86W, F297A counted along it
Chain of F338A HuAChE (P22303 32-614 F369A): as the sequence (P22303 32-614 W117A) above, with A86W, F338A counted along it
Chain of Wild Type HuAChE (P22303 32-614): as the sequence (P22303 32-614 W117A) above, with A86W counted along it
Chain of Y133A HuAChE (P22303 32-614 Y164A): as the sequence (P22303 32-614 W117A) above, with A86W, Y133A counted along it
Chain of W86A/Y337A HuAChE (P22303 32-614 W117A/Y368A): as the sequence (P22303 32-614 W117A) above, with Y337A counted along it
Chain of E202Q HuAChE (P22303 32-614 E233Q): as the sequence (P22303 32-614 W117A) above, with A86W, E202Q counted along it
Chain of Y72N HuAChE (P22303 32-614 Y103N): as the sequence (P22303 32-614 W117A) above, with Y72N, A86W counted along it
Chain of F295A/F338A/V407F HuAChE (P22303 32-614 F326A/F369A/V438F): as the sequence (P22303 32-614 W117A) above, with A86W, F295A, F338A, V407F counted along it
Chain of Y341A HuAChE (P22303 32-614 Y372A): as the sequence (P22303 32-614 W117A) above, with A86W, Y341A counted along it
Chain of Y72N/Y124Q/W286A/ F295L/F297V/Y337A/ V407F HuAChE (P22303 32-614 Y103N/Y155Q/W317A/F326L/F328V/Y368A/V438F): as the sequence (P22303 32-614 W117A) above, with Y72N, A86W, Y124Q, W286A, F295L, F297V, Y337A, V407F counted along it

For the molecule `CC(C)c1ccc(NC(=O)Oc2ccc3c(c2)C2(C)CCOC2N3C)cc1` (single isomer, unassigned; (+)) [(+)-Cymyl carbamate of physovenol, cymyl carbamate of physovenol], the Kd on F338A HuAChE (setting [3]) was determined as 57.1 ± 15 µM; on Y337A HuAChE (setting [4]), 2.2 ± 0.7 µM; at Wild Type HuAChE (setting [5]) it was 1 ± 0.2 µM; on W86A HuAChE (setting [6]), 5 ± 1.3 µM.
For `CC(C)c1ccc(NC(=O)Oc2ccc3c(c2)C2(C)CCOC2N3C)cc1` (single isomer, unassigned; (-)) [(−)-Cymyl carbamate of physovenol, cymyl carbamate of physovenol] the same measures were 40 ± 12 µM, 2.7 ± 1 µM, 0.71 ± 0.12 µM and 2.5 ± 0.2 µM.
For the molecule `CN1CC[C@@]2(C)c3cc(OC(=O)Nc4ccccc4)ccc3N(C)[C@@H]12` [(−)-Phenserine, phenserine], the Kd is 20.3 ± 6.1 µM in [1]; 41.3 ± 9.5 µM at F338A HuAChE; 0.12 ± 0.03 µM in test [2]; 0.8 ± 0.36 µM at F295L/F297V HuAChE; 0.3 ± 0.006 µM on F295L/F297V/Y337A HuAChE; 0.87 ± 0.34 µM at W86F HuAChE. For the same molecule, the Kd amounted to 7.6 ± 1.9 µM at Y133F HuAChE; 0.69 ± 0.21 µM on Y341A HuAChE; 0.74 ± 0.19 µM on Y72N HuAChE; 9.1 ± 3.6 µM on E202A HuAChE; 0.09 ± 0.04 µM at F295A HuAChE; 2.75 ± 0.28 µM on Y337A HuAChE. Further, the Kd at Y337F HuAChE stood at 0.28 ± 0.03 µM; on F295A/F338A/V407F HuAChE, 27.2 ± 5.5 µM; on E202Q HuAChE, 17.4 ± 3.4 µM; at F295A/F297A HuAChE (Kd, Michaelis complex (Eq. 1)), 2.8 ± 0.8 µM; on HuBChE-Wild Type, 9 ± 3 µM; on Wild Type HuAChE, 1.39 ± 0.55 µM. Also, the Kd was determined as 0.16 ± 0.03 µM at W286A HuAChE; 20 ± 9 µM at W86A HuAChE; 7.4 ± 1.9 µM at E450A HuAChE; 0.03 ± 0.008 µM on F295A/F338A HuAChE; 3.4 ± 0.61 µM on D74N HuAChE; 76 ± 15 µM at Y133A HuAChE. Also, the “k2, carbamylation rate constant” value on F338A HuAChE (F338A HuAChE) is 0.7 ± 0.1 min⁻¹; at F295L/F297V HuAChE (F295L/F297V HuAChE), 3.0 ± 1.8 min⁻¹; at F295L/F297V/Y337A HuAChE (F295L/F297V/Y337A HuAChE) it was 0.9 ± 0.2 min⁻¹; on W86F HuAChE (W86F HuAChE), 1.3 ± 0.9 min⁻¹; at Y133F HuAChE (Y133F HuAChE), 0.3 ± 0.09 min⁻¹; at Y341A HuAChE (Y341A HuAChE), 0.7 ± 0.3 min⁻¹. In addition, the “k2, carbamylation rate constant” value turned out to be 1.7 ± 0.2 min⁻¹ on Y72N HuAChE (Y72N HuAChE); 0.2 ± 0.1 min⁻¹ at E202A HuAChE (E202A HuAChE); 2.1 ± 1.2 min⁻¹ at F295A HuAChE (F295A HuAChE); 0.8 ± 0.4 min⁻¹ at Y337A HuAChE (Y337A HuAChE); 0.9 ± 0.07 min⁻¹ at Y337F HuAChE (Y337F HuAChE); 0.3 ± 0.1 min⁻¹ on F295A/F338A/V407F HuAChE (F295A/F338A/V407F HuAChE). Moreover, the “k2, carbamylation rate constant” value on E202Q HuAChE (E202Q HuAChE) was 3.2 ± 1 min⁻¹; on F295A/F297A HuAChE, 8.5 ± 2.5 min⁻¹; on HuBChE-Wild Type it was 0.6 ± 0.2 min⁻¹; on Wild Type HuAChE (Wild Type HuAChE), 0.9 ± 0.5 min⁻¹; at F297A HuAChE (F297A HuAChE) it was 1.0 ± 0.5 min⁻¹; on W86A HuAChE (W86A HuAChE), 1.3 ± 1.0 min⁻¹. The results for the “k2, carbamylation rate constant” value at E450A HuAChE (E450A HuAChE), at D74N HuAChE (D74N HuAChE) and at Y133A HuAChE (Y133A HuAChE) were 0.2 ± 0.04 min⁻¹, 0.7 ± 0.01 min⁻¹ and 0.4 ± 0.06 min⁻¹, respectively.
Consider `CNC(=O)Oc1ccc2c(c1)[C@]1(C)CCO[C@@H]1N2C` [(−)-Physovenine, physovenine], for which the Kd at F338A HuAChE is 2.56 ± 0.6 µM; at F295A HuAChE, 0.1 ± 0.027 µM; on Y337A HuAChE, 0.85 ± 0.2 µM; at W86A/Y337A HuAChE, 413 ± 85 µM; at F295A/F297A HuAChE (Kd, Michaelis complex (Eq. 1)), 0.23 ± 0.07 µM; at Wild Type HuAChE, 0.43 ± 0.09 µM. Besides, the Kd at F297A HuAChE was 0.63 ± 0.04 µM; at W86A HuAChE it was 120 ± 24 µM; at Y133A HuAChE (setting [7]), over 250 µM.
Regarding `CC(C)c1ccc(NC(=O)Oc2ccc3c(c2)[C@]2(C)CCN(C)[C@@H]2N3C)cc1` [(−)Cymserine, cymserine], the mode of inhibition result at Wild Type HuAChE (HuAChE enzymes) is reported as “noncovalent inhibitor”.
Consider `CCN(C)C(=O)Oc1cccc([C@H](C)N(C)C)c1` [Rivastigmine, rivastigmine], for which, at HuBChE-Wild Type (HuBChE vs HuAChE), the “k2 higher than for HuAChE” value is 9 fold and the “reactivity toward HuBChE higher than toward HuAChE” value worked out at 15 fold. Besides, the “k2, carbamylation rate constant” value on HuBChE-Wild Type is 0.90 ± 0.03 min⁻¹.
With physovenine [(+)-Physovenine], the Kd at F338A HuAChE (read-out: Kd, Michaelis complex (Eq. 1), F338A HuAChE) came to 0.7 ± 0.1 µM; at F295A HuAChE (read-out: Kd, Michaelis complex (Eq. 1), F295A HuAChE), 0.09 ± 0.025 µM; at Y337A HuAChE (read-out: Kd, Michaelis complex (Eq. 1), Y337A HuAChE), 15 ± 1.6 µM; on W86A/Y337A HuAChE (read-out: Kd, Michaelis complex (Eq. 1), […], Table 3: Activity measured with TB) it was 281 ± 45 µM; on F295A/F297A HuAChE (read-out: Kd, Michaelis complex (Eq. 1)) it was 0.28 ± 0.08 µM; at Wild Type HuAChE (read-out: Kd, Michaelis complex (Eq. 1), Wild Type HuAChE) it was 1.4 ± 0.13 µM. The Kd is 1 ± 0.35 µM on F297A HuAChE (read-out: Kd, Michaelis complex (Eq. 1), F297A HuAChE); 280 ± 28.5 µM on W86A HuAChE (read-out: Kd, Michaelis complex (Eq. 1), W86A HuAChE); over 250 µM at Y133A HuAChE (setting [7]).

For the origin of these results see article PMC2949283 (The Biochemical journal, 2009).
